What was measured:
Jurkat cells [1] = experiment: Hoechst 33258 entry by flow cytometry as measure of cell death / pore formation; assay type: cell-based
Experimental: (§1) Jurkat cells were incubated with 0.1 ug/mL or 1 ug/mL fimaporfin (TPCS2a, tetraphenyl chlorin disulfonate) for 10 minutes in complete RPMI 1640 medium. Following irradiation, the cells were incubated for 48 hours at 37° C. and 5% CO2, after which several analyses of cell health were performed.
(§2) Blue light irradiation/illumination was performed using LumiSource according to the manufacturer's protocol (PCI Biotech)
Entry of Hoechst 33258 (Thermo Fisher Scientific) into cells was performed as a measure of cell death. When Hoechst 33258 enters cells, it binds to double-stranded DNA generating a strong fluorescent signal. Entry of the stain into the cells requires the presence of pores in the plasma membrane and is a late-stage measure of cell health, i.e. cell death. Hoechst 33258 staining and flow cytometry was performed according to the manufacturer's protocol (Thermo Fisher Scientific).

Jurkat cells [2] = experiment: Cell counting (Coulter Counter) as measure of cell growth; assay type: cell-based; details: higher dose (1 ug/mL) vs 0.1 ug/mL at corresponding irradiation times, 48 hours after irradiation
Experimental: as §1, §2
Cell counting was performed as a measure of cell growth using a Coulter Counter by Beckman Coulter according to the manufacturer's protocol. Counting was performed 48 hours after irradiation.

HEK293T cells [3] = experiment: Genomic DNA leakage into supernatant by ddPCR (albumin primers); assay type: cell-based, human; details: TPCS2a 5 μg/mL 10 min, irradiation 5 minutes, 2 hours incubation
Experimental: (§3) 75-80% confluent HEK293T cells were incubated with 5 μg/mL TPCS2a or 0.5% Tween 20 in complete DMEM for 10 minutes followed by irradiation for 5 minutes (where indicated). Blue light irradiation/illumination was performed using LumiSource according to the manufacturer's protocol (PCI Biotech). A negative control of complete DMEM containing the TPCS2a solvent was used to control for solvent effects on cell lysis.
Following irradiation, the cells were incubated for 2 hours at 37° C. and 5% CO2, after which supernatants were collected. Cell debris (if any) was eliminated by centrifugation. Genomic DNA from all samples was quantified by ddPCR (Bio-Rad QX600) using primers targeting human albumin DNA.
Albumin DNA values were normalised to the negative control.

HEK293T cells [4] = experiment: Release of AAV2 viral vectors from producer cells (ddPCR of DNase-resistant vg in supernatant); assay type: cell-based; details: adherent HEK293T, TPCS2a 5 μg/mL 10 min, blue light 5 minutes, supernatant 2 hours later
Experimental: 75-80% confluent HEK293T cells were triple transfected with Adeno-associated virus serotype 2 (AAV)-encoding plasmids (pHelper, AAV2 RepCap, and pscAAV-GFP plasmids) using polyethylenimine (PEI) in 12 well plates, resulting in AAV2 production. For each transfection, plasmids and PEI were added to complete DMEM to a total volume of 640 μL, followed by vortexing for 10 seconds and 15 minutes incubation at room temperature. Medium was removed from the HEK293T cells in 12 well plates, and replaced by the DMEM-plasmid-PEI mixture. Cells were incubated for three days at 37° C. and 5% CO2. Three days after transfection, cells were subjected to treatments (as described below) for 10 minutes in complete DMEM.
Treatments were: • a) Untransfected cells, no further treatment. • b) Transfected cells. Received photosensitiser solvent but no photosensitiser (to control for solvent effect on cell lysis). • c) Transfected cells. Incubated with 5 μg/mL TPCS2a (Fimaporfin) for 10 minutes. […]
Supernatants were harvested 2 hours later and cell debris (if any) was eliminated by centrifugation. DNase-resistant viral genome (vg) from all samples was quantified by digital droplet PCR amplification (Bio-Rad QX600) of DNase-resistant (i.e. viral capsid-encapsulated) DNA using primers targeting inverted terminal repeats. Viral vector yield was expressed as “vg/mL” (AAV vector genomes per millilitre).

HEK293T suspension cells = experiment: Photochemical lysis of suspension cells studied by microscopy; assay type: cell-based; details: 5 μg/mL 10 min + blue light 5 minutes, 2 hours after
Experimental: HEK293T suspension cells were treated with 5 μg/mL TPCS2a (fimaporfin) or fimaporfin solvent without photosensitiser (“Neg. Ctrl”) in complete DMEM for 10 minutes, followed by blue light illumination for 5 minutes (as described in Example 6). Hoechst 33258 was added to samples 2 minutes prior to imaging. Hoechst 33258 DNA stain is not readily cell penetrable, and therefore stains free DNA or DNA in cells with plasma membrane pores.
Cells were washed in PBS/1% FBS prior to imaging to remove unbound fimaporfin. Cells were imaged by light (Nomarski) microscopy and fimaporfin and Hoechst fluorescence by fluorescence microscopy after 10 minutes (i.e. prior to illumination) and 2 hours after illumination. Imaging was conducted as set out in Example 2.

HEK293 cells [5] = experiment: Cellular morphology after photochemical treatment (Nomarski/fluorescence microscopy); assay type: cell-based; details: HEK293, 5 μg/mL 10 min
Experimental: HEK293 cells were incubated with 5 μg/mL TPCS2a complete DMEM for 10 minutes, followed by irradiation with blue light for 5 minutes. Blue light irradiation/illumination was performed using LumiSource according to the manufacturer's protocol (PCI Biotech). Cells were imaged by light (Nomarski) and fluorescence microscopy prior to illumination and 2 hours after illumination. Imaging was performed as described in Example 2.

HEK293 cells [6] = experiment: DNA leakage by Hoechst 33258 staining and microscopy, photochemical vs detergent lysis; assay type: cell-based; details: HEK293, TPCS2a 5 μg/mL or Tween 20 0.5%, 10 min, irradiation 5 minutes, 2 hours after
Experimental: as §3, with “HEK293 cells” for “75-80% confluent HEK293T cells”, “5 minutes.” for “5 minutes (where indicated).”, “cell morphology and” for “cell”
Hoechst 33258 stain was added to samples 2 minutes prior to imaging. Hoechst 33258 staining was performed according to the manufacturer's protocol (Thermo Fisher Scientific). The cells were imaged by light (Nomarski) and fluorescence microscopy prior to irradiation and 2 hours after irradiation. Imaging was performed as described in Example 2. Changes to cellular morphology were analysed visually.

HEK293 cells [7] = experiment: LDH release assay (leakage of cytosolic material); assay type: cell-based; details: 10 min, assessed after 2 hours
Experimental: HEK293 cells were incubated with either 0.5 μg/mL TPCS2a or 0.5% Tween 20 in serum-free DMEM. Alternatively, HEK293 cells were incubated with 50 μg/mL TPCS2a in 10% serum supplemented DMEM for 10 minutes. The cells were subsequently irradiated with blue light for 5 minutes or received no irradiation. Blue light irradiation/illumination was performed using LumiSource according to the manufacturer's protocol (PCI Biotech). The negative control (Neg. Ctrl) was either serum-free DMEM or 10% Fetal Bovine Serum (FBS) supplemented DMEM containing the TPCS2a solvent to control for the effect of solvents on LDH leakage. Background absorbance values of the LDH assay was assessed using DMEM with increasing concentrations of FBS at 1%, 5% and 10%.
LDH release was performed as a measure of cell lysis and release of cytosolic material using CyQUANT LDH Cytotoxicity Assay (Thermo Fisher Scientific) according to manufacturer's protocol. Cells were seeded in 48 well plates one day prior to treatments in 400 μL. The following day, treatments were given for 10 minutes at 37° C. 5% CO2, prior to 5 minutes illumination. Plates were subsequently incubated for 2 hours in an incubator (37° C. 5% CO2), then centrifuged for 5 minutes at 400×g, after which 50 μL supernatant from each sample was transferred to a 96 well plate for absorbance measurements according to kit instructions. 490 nm absorbance reflects LDH and 680 nm reflects absorbance background from the instrument. 490 nm absorbance minus 680 nm absorbance is directly proportional to the amount of LDH released into the medium.

Jurkat cells [8] = experiment: MTS assay of metabolic activity/viability after TPCS2a and blue light; assay type: cell-based; details: 48 hours incubation
Experimental: as §1, §2
MTS metabolism was performed as a measure of metabolic activity and performed according the manufacturer's protocol (Promega).

tetraphenyl chlorin disulfonate [TPCS2a]
cell death (Hoechst 33258 staining) (Jurkat cells [1]; TPCS2a 0.1 μg/ml 10 min, various irradiation times): some cell death but only at longer irradiation times | cell death (Hoechst 33258 staining) (Jurkat cells [1]; TPCS2a 1 μg/ml 10 min, after 2 minutes of irradiation): significant cell death | cell density (cell counting) (Jurkat cells [2]): reduced cell density | genomic DNA leakage into supernatant (ddPCR) (HEK293T cells [3]): does not cause the leakage of genomic DNA | release of AAV2 viral vectors into supernatant (HEK293T cells [4]): releases non-enveloped viral vectors from producer cells | DNA retention (Hoechst 33258 microscopy) (HEK293T suspension cells): DNA is retained within the boundaries of the lysed cells | plasma membrane disruption (HEK293T suspension cells): opens up the plasma membrane | cellular morphology (HEK293 cells [5]; absence of irradiation): do not exhibit changes to their cellular morphology | cellular morphology (HEK293 cells [5]; blue light 5 minutes, 2 hours after illumination): dramatically altered cellular morphology and had shifted to a lytic phenotype | DNA leakage (Hoechst 33258 microscopy) (HEK293 cells [6]): DNA stays within the boundaries of the cell corpse | LDH release (HEK293 cells [7]; HEK293, 10% FBS DMEM, TPCS2a 50 μg/mL, blue light 5 minutes): increased significantly | LDH release (HEK293 cells [7]; HEK293, 10% FBS DMEM, TPCS2a 50 μg/mL, no irradiation): comparable levels of LDH release to HEK293 cells treated with a negative control | LDH release (HEK293 cells [7]; HEK293, serum-free DMEM, TPCS2a 0.5 μg/mL or Tween 20 0.5%, blue light 5 minutes): increased significantly | LDH release (HEK293 cells [7]; HEK293, serum-free DMEM, TPCS2a 0.5 μg/mL or Tween 20 0.5%, no irradiation): comparable levels of LDH release to HEK293 cells treated with a negative control | cell viability (MTS absorbance) (Jurkat cells [8]; TPCS2a 1 μg/ml 10 min, 4-5 minutes irradiation): total loss of viability | cell viability (MTS absorbance) (Jurkat cells [8]; TPCS2a 0.1 or 1 ug/mL 10 min, blue light 2-5 minutes): reductions in viability
